Measurements as given in ChEMBL document CHEMBL1909046, “DrugMatrix in vitro pharmacology data”.

How the values were obtained:
Caspase-1 = biological target: T1, Caspase-1 (Homo sapiens, UniProt P29466); design: species or system Escherichia coli;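 further: Caspase-1 enzyme inhibition assay with a peptide substrate; in other assays of this panel Not Active means under 50% inhibition at 10 µM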
T1 sequence (P29466 whole entry): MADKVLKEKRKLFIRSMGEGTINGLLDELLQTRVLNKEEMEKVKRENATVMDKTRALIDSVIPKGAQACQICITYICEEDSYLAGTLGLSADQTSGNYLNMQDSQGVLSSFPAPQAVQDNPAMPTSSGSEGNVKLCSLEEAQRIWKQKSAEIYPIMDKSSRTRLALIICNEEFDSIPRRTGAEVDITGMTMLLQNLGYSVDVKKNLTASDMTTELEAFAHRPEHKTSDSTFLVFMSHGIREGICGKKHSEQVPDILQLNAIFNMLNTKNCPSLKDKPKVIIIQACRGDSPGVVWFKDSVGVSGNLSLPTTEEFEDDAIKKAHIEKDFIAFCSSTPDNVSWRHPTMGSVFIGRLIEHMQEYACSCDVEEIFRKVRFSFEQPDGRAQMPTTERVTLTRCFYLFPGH

[1] = biological target: Tyrosine-protein kinase Fyn (Homo sapiens, UniProt P06241); experiment: biochemical; type: cell-based, Insect cells;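 further: enzymatic inhibition of Fyn kinase activity measured with Poly(Glu:Tyr) as the phosphorylation substrate; in other assays of this panel Not Active means under 50% inhibition at 10 µM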
B2 bradykinin receptor = biological target: T2, B2 bradykinin receptor (Homo sapiens, UniProt P30411); type: cell membranes, Membrane; conditions: chem-1; further: in other assays of this panel Not Active means under 50% inhibition at 10 µM
T2 sequence (P30411 whole entry): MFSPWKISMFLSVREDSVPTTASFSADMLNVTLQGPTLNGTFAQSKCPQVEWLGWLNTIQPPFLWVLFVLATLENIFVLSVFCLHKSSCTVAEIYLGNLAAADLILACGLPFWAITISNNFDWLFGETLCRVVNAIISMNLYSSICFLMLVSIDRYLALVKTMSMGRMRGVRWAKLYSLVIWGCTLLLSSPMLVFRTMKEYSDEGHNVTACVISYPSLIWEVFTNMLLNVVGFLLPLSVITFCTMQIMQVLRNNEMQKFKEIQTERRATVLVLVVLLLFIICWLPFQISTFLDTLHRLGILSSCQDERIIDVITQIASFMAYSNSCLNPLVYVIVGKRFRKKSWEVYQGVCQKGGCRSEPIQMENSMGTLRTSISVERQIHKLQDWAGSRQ

[2] = biological target: T3, Alpha-1A adrenergic receptor (Rattus norvegicus, UniProt P43140); experiment: DRUGMATRIX: Alpha-1A adrenergic receptor radioligand binding (ligand: prazosin); type: cell membranes, Wistar, Submaxillary gland, Membrane; conditions: Not Active = under 50% inhibition at 10 µM
T3 sequence (P43140 whole entry): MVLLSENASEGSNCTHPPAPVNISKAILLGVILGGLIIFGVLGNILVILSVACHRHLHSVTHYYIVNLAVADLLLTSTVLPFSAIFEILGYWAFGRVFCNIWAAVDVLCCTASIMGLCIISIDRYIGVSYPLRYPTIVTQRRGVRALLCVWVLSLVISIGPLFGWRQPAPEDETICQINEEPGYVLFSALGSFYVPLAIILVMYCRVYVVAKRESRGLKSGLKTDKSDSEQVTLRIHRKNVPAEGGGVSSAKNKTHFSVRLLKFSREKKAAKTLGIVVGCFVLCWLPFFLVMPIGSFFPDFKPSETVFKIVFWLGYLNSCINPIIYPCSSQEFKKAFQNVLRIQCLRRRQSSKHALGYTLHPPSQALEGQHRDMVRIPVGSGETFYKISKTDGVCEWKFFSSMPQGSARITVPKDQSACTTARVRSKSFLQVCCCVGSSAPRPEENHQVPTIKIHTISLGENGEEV

[3] = biological target: T4, Muscarinic acetylcholine receptor M4 (Homo sapiens, UniProt P08173); type: cell membranes, CHO-K1, Membrane; conditions: for Ki: read-out: Ki; on all read-outs here: in other assays of this panel Not Active means under 50% inhibition at 10 µM
T4 sequence (P08173 whole entry): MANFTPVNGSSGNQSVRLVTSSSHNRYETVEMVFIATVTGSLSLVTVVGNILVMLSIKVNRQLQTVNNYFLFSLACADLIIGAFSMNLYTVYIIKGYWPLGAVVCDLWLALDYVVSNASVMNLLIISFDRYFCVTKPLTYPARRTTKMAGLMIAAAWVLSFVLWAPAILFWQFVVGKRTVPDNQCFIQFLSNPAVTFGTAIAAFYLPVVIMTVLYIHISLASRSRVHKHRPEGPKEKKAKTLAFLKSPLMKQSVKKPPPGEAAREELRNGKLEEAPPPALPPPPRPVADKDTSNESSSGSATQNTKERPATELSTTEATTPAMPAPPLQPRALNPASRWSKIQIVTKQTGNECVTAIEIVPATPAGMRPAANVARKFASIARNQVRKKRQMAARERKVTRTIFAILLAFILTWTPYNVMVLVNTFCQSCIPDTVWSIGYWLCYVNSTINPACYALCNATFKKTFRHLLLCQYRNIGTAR

Melanocortin receptor 5 = Melanocortin receptor 5 (Homo sapiens, UniProt P33032); type: cell membranes, Membrane; conditions: hek293; further: in other assays of this panel Not Active means under 50% inhibition at 10 µM
Sequence of Melanocortin receptor 5 (P33032 whole entry): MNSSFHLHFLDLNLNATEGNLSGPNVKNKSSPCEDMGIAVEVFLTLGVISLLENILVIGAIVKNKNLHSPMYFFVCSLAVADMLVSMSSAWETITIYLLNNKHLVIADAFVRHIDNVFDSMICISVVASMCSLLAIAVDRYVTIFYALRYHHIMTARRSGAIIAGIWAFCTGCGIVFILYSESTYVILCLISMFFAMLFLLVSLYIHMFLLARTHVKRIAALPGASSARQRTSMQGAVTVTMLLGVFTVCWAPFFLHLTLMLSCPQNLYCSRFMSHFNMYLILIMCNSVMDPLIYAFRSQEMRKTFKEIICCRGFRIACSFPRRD

Sequence of Tyrosine-protein kinase Fyn (P06241 whole entry): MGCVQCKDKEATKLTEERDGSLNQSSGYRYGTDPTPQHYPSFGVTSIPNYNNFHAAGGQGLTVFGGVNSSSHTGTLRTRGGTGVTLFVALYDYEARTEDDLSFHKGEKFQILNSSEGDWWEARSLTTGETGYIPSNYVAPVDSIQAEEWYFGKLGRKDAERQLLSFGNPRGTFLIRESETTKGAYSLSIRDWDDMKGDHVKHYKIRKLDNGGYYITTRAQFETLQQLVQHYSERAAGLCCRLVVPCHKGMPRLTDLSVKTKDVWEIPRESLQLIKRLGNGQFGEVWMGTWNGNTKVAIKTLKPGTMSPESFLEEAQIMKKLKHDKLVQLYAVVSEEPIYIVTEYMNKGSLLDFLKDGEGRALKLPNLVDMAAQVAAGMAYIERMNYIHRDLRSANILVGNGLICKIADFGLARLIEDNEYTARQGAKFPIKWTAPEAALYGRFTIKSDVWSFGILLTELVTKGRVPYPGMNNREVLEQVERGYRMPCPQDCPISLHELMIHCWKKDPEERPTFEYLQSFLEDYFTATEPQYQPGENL

| Compound | IC50 (Caspase-1) | IC50 ([1]; insect cells) | IC50 (B2 bradykinin receptor) | IC50 [2] | IC50 ([3]; cho-k1) | IC50 (Melanocortin receptor 5) | IC50 (Caspase-1; read-out: IC50) | IC50 [1] | IC50 ([1]; read-out: IC50) | IC50 ([3]; read-out: IC50) | Ki [3] |
| --- | --- | --- | --- | --- | --- | --- | --- | --- | --- | --- | --- |
| C[C@@H]1C[C@@H]([C@H](O)CC2CC(=O)NC(=O)C2)C(=O)[C@@H](C)C1 [CYCLOHEXIMIDE] | Not Active | Not Active | Not Active | Not Active | Not Active | Not Active |  |  |  |  |  |
| C/C=C/C[C@@H](C)[C@@H](O)[C@H]1C(=O)N[C@@H](CC)C(=O)N(C)CC(=O)N(C)[C@@H](CC(C)C)C(=O)N[C@@H](C(C)C)C(=O)N(C)[C@@H](CC(C)C)C(=O)N[C@@H](C)C(=O)N[C@H](C)C(=O)N(C)[C@@H](CC(C)C)C(=O)N(C)[C@@H](CC(C)C)C(=O)N(C)[C@@H](C(C)C)C(=O)N1C [CYCLOSPORINE] | Not Active | Not Active | Not Active | Not Active | Not Active | Not Active |  |  |  |  |  |
| CN(C)/N=N/c1[nH]cnc1C(N)=O [DACARBAZINE] | Not Active | Not Active | Not Active | Not Active | Not Active | Not Active |  |  |  |  |  |
| COc1ccc2c(c1)[C@]13CCCC[C@@H]1[C@H](C2)N(C)CC3 [DEXTROMETHORPHAN] | Not Active | Not Active | Not Active | Not Active | Not Active | Not Active |  |  |  |  |  |
| CC(=O)Nc1c(I)c(NC(C)=O)c(I)c(C(=O)O)c1I [DIATRIZOIC ACID] | Not Active | Not Active | Not Active | Not Active | Not Active | Not Active |  |  |  |  |  |
| COP(=O)(OC)OC=C(Cl)Cl [DICHLORVOS] | Not Active | Not Active | Not Active | Not Active | Not Active | Not Active |  |  |  |  |  |
| O=C(O)Cc1ccccc1Nc1c(Cl)cccc1Cl [DICLOFENAC] | Not Active | Not Active | Not Active | Not Active | Not Active | Not Active |  |  |  |  |  |
| C[C@H]1O[C@@H](O[C@H]2[C@@H](O)C[C@H](O[C@H]3[C@@H](O)C[C@H](O[C@H]4CC[C@@]5(C)[C@H](CC[C@@H]6[C@@H]5CC[C@]5(C)[C@@H](C7=CC(=O)OC7)CC[C@]65O)C4)O[C@@H]3C)O[C@@H]2C)C[C@H](O)[C@@H]1O [DIGITOXIN] | Not Active | Not Active | Not Active | Not Active | Not Active | Not Active |  |  |  |  |  |
| CCN1CC(CCN2CCOCC2)C(c2ccccc2)(c2ccccc2)C1=O (stereo not drawn) [DOXAPRAM] | Not Active | Not Active | Not Active | Not Active | Not Active | Not Active |  |  |  |  |  |
| Cn1c(=O)c2c(ncn2CC2OCCO2)n(C)c1=O [DOXOFYLLINE] | Not Active | Not Active | Not Active | Not Active | Not Active | Not Active |  |  |  |  |  |
| COc1cccc2c1C(=O)c1c(O)c3c(c(O)c1C2=O)C[C@@](O)(C(=O)CO)C[C@@H]3O[C@H]1C[C@H](N)[C@H](O)[C@H](C)O1 [DOXORUBICIN] |  |  | Not Active | Not Active | Not Active | Not Active | 12200 nM | 5150 nM |  |  |  |
| COc1cccc2c1C(=O)c1c(O)c3c(c(O)c1C2=O)C[C@@](O)(C(=O)CO)C[C@@H]3O[C@H]1C[C@H](N)[C@@H](O)[C@H](C)O1 [EPIRUBICIN] | Not Active |  | Not Active | Not Active | Not Active | Not Active |  |  | 5180 nM |  |  |
| C[C@]12CC[C@@H]3c4ccc(OC(=O)c5ccccc5)cc4CC[C@H]3[C@@H]1CC[C@@H]2O [ESTRADIOL BENZOATE] | Not Active |  | Not Active | Not Active | Not Active | Not Active |  |  | 23000 nM |  |  |
| C[C@]12CC[C@@H]3c4ccc(O)cc4CC[C@H]3[C@@H]1CC[C@@H]2O [ESTRADIOL] | Not Active | Not Active | Not Active | Not Active | Not Active | Not Active |  |  |  |  |  |
| CC[C@@H](CO)NCCN[C@@H](CC)CO [ETHAMBUTOL] | Not Active | Not Active | Not Active | Not Active | Not Active | Not Active |  |  |  |  |  |
| CC1(C)O[C@@H]2C[C@H]3[C@@H]4C[C@H](F)C5=CC(=O)C=C[C@]5(C)[C@H]4[C@@H](O)C[C@]3(C)[C@]2(C(=O)CO)O1 [FLUNISOLIDE] | Not Active | Not Active | Not Active | Not Active | Not Active | Not Active |  |  |  |  |  |
| CC1(C)O[C@@H]2C[C@H]3[C@@H]4C[C@H](F)C5=CC(=O)C=C[C@]5(C)[C@@]4(F)[C@@H](O)C[C@]3(C)[C@]2(C(=O)CO)O1 [FLUOCINOLONE ACETONIDE] | Not Active | Not Active | Not Active | Not Active | Not Active | Not Active |  |  |  |  |  |
| CC1(C)O[C@@H]2C[C@H]3[C@@H]4C[C@H](F)C5=CC(=O)CC[C@]5(C)[C@H]4[C@@H](O)C[C@]3(C)[C@]2(C(=O)CO)O1 [FLURANDRENOLIDE] | Not Active | Not Active | Not Active | Not Active | Not Active | Not Active |  |  |  |  |  |
| CN(C)c1ccc(C(=C2C=CC(=[N+](C)C)C=C2)c2ccc(N(C)C)cc2)cc1.[Cl-] [GENTIAN VIOLET] | Not Active |  | Not Active | Not Active |  | Not Active |  |  | 2150 nM | 1010 nM | 140 nM |
| Cc1ccc(S(=O)(=O)NC(=O)NN2CC3CCCC3C2)cc1 (stereo not drawn) [GLICLAZIDE] | Not Active | Not Active | Not Active | Not Active | Not Active | Not Active |  |  |  |  |  |
| NC(=O)NO [HYDROXYUREA] | Not Active | Not Active | Not Active | Not Active | Not Active | Not Active |  |  |  |  |  |
| CC(C)Cc1ccc(C(C)C(=O)O)cc1 (stereo not drawn) [IBUPROFEN] | Not Active | Not Active | Not Active | Not Active | Not Active | Not Active |  |  |  |  |  |
| COc1ccc2c(c1)c(CC(=O)O)c(C)n2C(=O)c1ccc(Cl)cc1 [INDOMETHACIN] | Not Active | Not Active | Not Active | Not Active | Not Active | Not Active |  |  |  |  |  |
| CCc1c2c(nc3ccc(OC(=O)N4CCC(N5CCCCC5)CC4)cc13)-c1cc3c(c(=O)n1C2)COC(=O)[C@]3(O)CC [IRINOTECAN] | Not Active | Not Active | Not Active | Not Active |  | Not Active |  |  |  | 1560 nM | 217 nM |
| CC(C(=O)O)c1cccc(C(=O)c2ccccc2)c1 (stereo not drawn) [KETOPROFEN] | Not Active | Not Active | Not Active | Not Active | Not Active | Not Active |  |  |  |  |  |
| Nc1ccn([C@@H]2CS[C@H](CO)O2)c(=O)n1 [LAMIVUDINE] | Not Active | Not Active | Not Active | Not Active | Not Active | Not Active |  |  |  |  |  |
